± gives the expanded uncertainty stated by the source.
Key:
[1] = for mass density / viscosity: Liquid; for mass density: Vibrating tube method; for viscosity: 101.33 kPa, Capillary tube (Ostwald / Ubbelohde) method; for surface tension liquid-gas: Ring tensiometer
[2] = molar heat capacity at constant pressure; settings: 101.33 kPa, Liquid, Small sample (50 mg) DSC

CCCC[n+]1cccc(C)c1.N#C[C-](C#N)C#N [1-butyl-3-methylpyridinium tricyanomethanide]
Settings | mass density [kg/m3] | molar heat capacity at constant pressure [J/K/mol] | surface tension liquid-gas [mN/m] | viscosity [mPa·s]
[1], 283.15 K | 1052.57 ± 1.3 | – | – | –
[1], 293.15 K | 1045.79 ± 1.3 | – | – | –
[1], 295.15 K | – | – | – | 51.42 ± 2.2
[1], 296.05 K | – | – | 27.7 ± 0.6 | –
[1], 298.15 K | – | – | – | 43.92 ± 1.9
[1], 303.15 K | 1039.12 ± 1.3 | – | – | 34.87 ± 1.5
[1], 305.75 K | – | – | 27.3 ± 0.6 | –
[1], 308.15 K | – | – | – | 28.22 ± 1.2
[1], 313.15 K | 1032.55 ± 1.3 | – | – | 23.27 ± 0.98
[1], 313.75 K | – | – | 26.9 ± 0.6 | –
[1], 320.65 K | – | – | 26.6 ± 0.6 | –
[1], 323.15 K | 1026.1 ± 1.3 | – | – | 16.25 ± 0.68
[1], 329.85 K | – | – | 26.3 ± 0.6 | –
[1], 333.15 K | 1019.76 ± 1.3 | – | – | 12.19 ± 0.51
[1], 338.15 K | – | – | 26 ± 0.6 | –
[1], 343.15 K | 1013.52 ± 1.3 | – | – | 9.56 ± 0.4
[1], 346.15 K | – | – | 25.5 ± 0.5 | –
[1], 353.15 K | 1007.34 ± 1.3 | – | – | 7.54 ± 0.31
[1], 356.15 K | – | – | 25.1 ± 0.5 | –
[1], 363.15 K | 1001.13 ± 1.3 | – | – | 6.07 ± 0.25
[2], 298 K | – | 468 ± 47 | – | –
[2], 323 K | – | 479 ± 48 | – | –

Source: the NIST ThermoML archive (doi:10.1016/j.fluid.2011.05.002)
